Source: patent US8785425B2, “11β-hydroxyandrosta-4-ene-3-ones” (Sun Pharma Advanced Research Company Ltd., priority 2006, dated 2014)
Marks after values point to notes of the source that are not given here. One block for each molecule: values may come before it.

Experiments:
[1] = tested on: liver glycogen deposition; format: in vivo, Male Sprague Dawley rats; details: 3 mg/kg intratracheally, 2 doses 24 hrs apart, adrenalectomized rats
Protocol: Male Sprague Dawley rats, weighing 190-220 g were bilaterally adrenalectomized and maintained on 0.9% saline solution throughout the experiment. On day 5th and 6th of adrenalectomy, animals were made into different groups, test compounds prepared in cold saline (sonicated for 30 min) were instilled intratracheally 2 doses@3 mg/kg, 24 hrs apart. At 15 hrs after the last treatment, animals were sacrificed and livers were excised and weighed. The glycogen content of the livers was determined by anthrone method. Briefly, a weighed quantity of liver tissue was homogenized with 5% trichloroacetic acid, supernatant mixed with ethanol and kept overnight for precipitation. The glycogen thus extracted was estimated as glucose generated after acid hydrolysis by addition of anthrone reagent at 620 nm. Glycogen content was expressed as mg/100 g liver.

[2] = tested on: croton oil induced ear edema; assay: Croton oil ear edema; format: in vivo, Mice (male, CD-1); details: inhibition at 1.6 μg, applied to ear, mice
Protocol: Mice (male, CD-1) were made into different groups. Test compounds were dissolved in pyridine-water-acetone (4:2:14) solution […] of compound or vehicle solution was applied to the left ear of the mice. The right ear of each mouse was applied simultaneously with 10 μl of pyridine:water:acetone (4:2:14) solution. After 2 hrs of compound or vehicle application, 10 μl of croton oil solution was applied to the left ear of all animals. After 6 hr of croton oil treatment the animals were sacrificed; ears were excised and weighed separately.

[3] = tested on: cotton pellet induced granuloma; assay: Cotton pellet granuloma (compound impregnated in pellet); format: in vivo; details: SD rats
Protocol: SD rats were used for assessing anti-inflammatory activity of test compound using cotton pellet granuloma method. Sterilized cotton pellets weighing 20 mg were prepared. Test compounds were dissolved in acetone so as to get the required quantity for each cotton pellet in 500 μl. Different pellets were impregnated with 500 μl of acetone to contain required quantity of test compounds and allowed to dry. Vehicle control pellets were impregnated with 500 μl acetone. Rats were made into different groups. Two cotton pellets were surgically implanted into the scapular region of each rat. On sixth day of such implantation, pellets along with granuloma were taken out. Thymus gland was also separated from each animal and weighed. The pellets with granuloma were dried for 20 hrs at 60° C. and weighed. Mean weights of dry granuloma and thymus, body weight gain/100 g body weights were calculated.

[4] = biological target: T1, glucocorticoid receptors (Homo sapiens, UniProt P04150); assay: Glucocorticoid receptor binding assay ([3H]dexamethasone radioligand); details: HeLa cells transfected with glucocorticoid receptors
T1 construct: host or cells: Human HeLa cells
T1 sequence (P04150 1-777): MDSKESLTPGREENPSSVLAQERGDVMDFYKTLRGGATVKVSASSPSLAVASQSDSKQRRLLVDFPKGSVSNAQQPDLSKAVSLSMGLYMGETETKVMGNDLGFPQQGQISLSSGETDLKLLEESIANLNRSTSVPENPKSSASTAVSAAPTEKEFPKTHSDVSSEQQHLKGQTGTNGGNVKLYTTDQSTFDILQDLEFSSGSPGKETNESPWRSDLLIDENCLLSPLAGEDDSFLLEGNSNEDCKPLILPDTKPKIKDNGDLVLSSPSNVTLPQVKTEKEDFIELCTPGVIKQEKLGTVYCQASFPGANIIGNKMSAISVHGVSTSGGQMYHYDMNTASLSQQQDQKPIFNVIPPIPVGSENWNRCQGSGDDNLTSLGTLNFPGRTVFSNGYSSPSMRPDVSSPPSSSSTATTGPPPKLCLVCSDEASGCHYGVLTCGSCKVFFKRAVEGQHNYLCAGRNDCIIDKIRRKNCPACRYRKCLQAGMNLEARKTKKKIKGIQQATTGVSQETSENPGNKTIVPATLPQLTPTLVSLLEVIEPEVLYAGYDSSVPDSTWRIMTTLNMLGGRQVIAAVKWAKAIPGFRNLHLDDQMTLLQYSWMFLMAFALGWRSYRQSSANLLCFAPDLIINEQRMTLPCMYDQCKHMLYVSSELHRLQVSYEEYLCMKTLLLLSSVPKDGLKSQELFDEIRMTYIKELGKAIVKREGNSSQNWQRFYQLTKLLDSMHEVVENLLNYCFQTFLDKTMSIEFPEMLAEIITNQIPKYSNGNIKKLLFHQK
Protocol: The steroid receptor binding assay were performed by MDS Pharma Services at their Taipei (Taiwan) pharmacology laboratory.
The activity of test compounds on glucocorticoid receptor was assessed using radioligand binding assays. […] Free [^3H]dexamethasone was removed from the medium by centrifugation and concentration of receptor bound ligand was determined in the supernatant by liquid scintillation counting.
The % inhibition was evaluated using a single concentration of test compound and the corresponding radiolabeled ligand. Results are presented as the percent inhibition of specific binding. The values are average of duplicate determinations for each concentration.

[5] = tested on: Sephadex induced lung edema; assay: in vivo; details: SD rat
Protocol: Sephadex G-200 was prepared in sterile saline (10 mg/ml) and allowed to swell for at least 3 days at room temperature. Test compounds were prepared as suspensions by grinding and sonicating the solid in chilled saline. All the compounds were administered intratracheally at 24 hrs and 2 hrs prior to intratracheal administration of Sephadex (5 mg/kg) under light ether anesthesia. Vehicle control animals were administered vehicle instead of Sephadex. At 24 hr after Sephadex instillation, lung and thymus were excised from individual animals and weighed. Wet weight of lung and thymus was corrected for 100 g of initial body weight. The percentage increase in lung weight caused by Sephadex and its inhibitions by the compounds, were calculated. The percentage inhibitions of thymus compared to vehicle control group were also calculated.

% Inhibition of thymus [1]: 43.51%
Glycogen content [1]: 1117.32 mg/100 g liver
Molecule: C[C@@H]1C[C@H]2[C@@H]3CCC4=CC(=O)C=C[C@]4(C)[C@@]3(Cl)[C@@H](O)C[C@]2(C)[C@@]1(OC(=O)c1ccco1)C(=O)CCl [Mometasone furoate, (11β,16α)-9,21-Dichloro-17-[(2-furanylcarbonyl)oxy]-11-hydroxy-16-methylpregna-1,4-diene-3,20-dione]

Molecule: COSC(=O)C1(OC(=O)c2ccco2)C(C)CC2C3CC(F)C4=CC(=O)C=CC4(C)C3(F)C(O)CC21C (stereo not drawn) [IC.14, 6α,9α-Difluoro-17α-[(2-furanylcarbonyl)oxy]-11β-hydroxy-16α-methyl-3-oxoandrosta-1,4-diene-17β-carbonylsulfenic acid methyl ester]
Mean % Inhibition (croton oil ear edema) [2]: 61.46^a %

Molecule: CC1CC2C3CCC4=CC(=O)C=CC4(C)C3(F)C(O)CC2(C)C1(OC(=O)c1ccco1)C(=O)SOCc1ccc(F)cc1 (stereo not drawn) [IC.9, 9α-Fluoro-17α-[(2-furanylcarbonyl)oxy]-11β-hydroxy-16α-methyl-3-oxoandrosta-1,4-diene-17β-carbonylsulfenic acid (4-fluorophenyl)methyl ester.]
Mean % Inhibition of Granuloma ([3]; dose 3 mcg per pellet): 34.3%
Thymus wt. (% Decrease) ([3]; dose 3 mcg per pellet): 2.51%

Molecule: CCC(=O)O[C@]1(C(=O)OCC(=O)c2ccccc2)[C@H](C)CC2C3C[C@H](F)C4=CC(=O)C=C[C@]4(C)[C@@]3(F)[C@@H](O)C[C@@]21C (stereo partly drawn) [IA.44, 2-Phenyl-2-oxoethyl 6α,9α-difluoro-11β-hydroxy-16α-methyl-3-oxo-17α-propionyloxyandrosta-1,4-diene-17β-carboxylate]
Mean % Inhibition of Granuloma ([3]; dose 1000 mcg per pellet): 71.79%

Molecule: CCC(=O)O[C@]1(C(=O)SC(C)(C)C(=O)c2ccccc2)[C@H](C)CC2C3C[C@H](F)C4=CC(=O)C=C[C@]4(C)[C@@]3(F)[C@@H](O)C[C@@]21C (stereo partly drawn) [IA.59, S-[1,1-Dimethyl-2-oxo-2-phenylethyl]6α,9α-difluoro-11β-hydroxy-16α-methyl-3-oxo-17α-propionyloxyandrosta-1,4-diene-17β-carbothioate]
Mean % Inhibition of Granuloma ([3]; dose 1000 mcg per pellet): 76.86%

Molecule: C[C@@H]1CC2C3C[C@H](F)C4=CC(=O)C=C[C@]4(C)[C@@]3(F)[C@@H](O)C[C@]2(C)[C@@]1(OC(=O)c1ccco1)C(=O)SC/C=C\CO (stereo partly drawn) [IB.15, S-(4-Hydroxy-(Z)-but-2-enyl) 6α,9α-difluoro-17α-[(2-furanylcarbonyl)oxy]-11β-hydroxy-16α-methyl-3-oxoandrosta-1,4-diene-17β-carbothioate]
inhibition at 0.01 µM ([4]; % inhibition at 10 nM): 83%
Mean % inhibition Lung edema ([5]; dose 1000 mcg/kg intratracheally): 70.3%
Mean % inhibition Lung edema ([5]; dose 3000 mcg/kg intratracheally): 71.1%

Molecule: CCC(=O)O[C@]1(C(=O)SC)[C@H](C)C[C@H]2[C@@H]3C[C@H](F)C4=CC(=O)C=C[C@]4(C)[C@@]3(F)[C@@H](O)C[C@@]21C [IC.13, 6α,9α-Difluoro-11β-hydroxy-16α-methyl-3-oxo-17α-propionyloxyandrosta-1,4-diene-17β-carbonylsulfenic acid methyl ester.]
Mean % Inhibition (croton oil ear edema) [2]: 41.79^a %

Molecule: C[C@@H]1CC2C3C[C@H](F)C4=CC(=O)C=C[C@]4(C)[C@@]3(F)[C@@H](O)C[C@]2(C)[C@@]1(OC(=O)c1ccco1)C(=O)SCC#CCOC(=O)N(C)C (stereo partly drawn) [IB.103, S-[4-(N,N-Dimethylaminocarbonyloxy)-but-2-ynyl]6α,9α-difluoro-17α-[(2-furanyl-carbonyl)oxy]-11β-hydroxy-16α-methyl-3-oxoandrosta-1,4-diene-17β-carbothioate]
inhibition at 0.01 µM ([4]; % inhibition at 10 nM): 78%

Molecule: CCCCC(=O)OCC#CCSC(=O)[C@@]1(OC(=O)CC)[C@H](C)CC2C3C[C@H](F)C4=CC(=O)C=C[C@]4(C)[C@@]3(F)[C@@H](O)C[C@@]21C (stereo partly drawn) [IB.35, S-[4-n-Butylcarbonyloxy-but-2-ynyl]6α,9α-difluoro-11β-hydroxy-16α-methyl-3-oxo-17α-propionyloxyandrosta-1,4-diene-17β-carbothioate]
Mean % Inhibition (croton oil ear edema) [2]: 60.18^a %

Molecule: CCOC(=O)C(=O)OC/C=C/CSC(=O)[C@@]1(OC(=O)CC)[C@H](C)CC2C3C[C@H](F)C4=CC(=O)C=C[C@]4(C)[C@@]3(F)[C@@H](O)C[C@@]21C (stereo partly drawn) [IB.44, S-[4-(2-Ethoxy-1,2-dioxoethyl)oxy-(E)-but-2-enyl]6α,9α-difluoro-11β-hydroxy-16α-methyl-3-oxo-17α-propionyloxyandrosta-1,4-diene-17β-carbothioate]
Mean % Inhibition (croton oil ear edema) [2]: 75.19^a %

Molecule: CC1CC2C3CC(F)C4=CC(=O)C=CC4(C)C3(F)C(O)CC2(C)C1(OC(=O)c1ccco1)C(=O)SOCc1ccc(C(F)(F)F)cc1 (stereo not drawn) [IC.6, 6α,9α-Difluoro-17α-[(2-furanylcarbonyl)oxy]-11β-hydroxy-16α-methyl-3-oxoandrosta-1,4-diene-17β-carbonylsulfenic acid (4-trifluoromethylphenyl)methyl ester.]
Mean % Inhibition of Granuloma ([3]; dose 1000 mcg per pellet): 84.96%
Thymus wt. (% Decrease) ([3]; dose 1000 mcg per pellet): 10.96%

Molecule: CCC(=O)O[C@]1(C(=O)SCC#CCO)[C@H](C)CC2C3C[C@H](F)C4=CC(=O)C=C[C@]4(C)[C@@]3(F)[C@@H](O)C[C@@]21C (stereo partly drawn) [IB.2, S-(4-Hydroxy-but-2-ynyl) 6α,9α-difluoro-11β-hydroxy-16α-methyl-3-oxo-17α-propionyloxyandrosta-1,4-diene-17β-carbothioate]
inhibition at 0.003 µM ([4]; % inhibition at 3 nM): 55%

Molecule: CCC(=O)O[C@]1(C(=O)SCC(=O)c2ccc(C(F)(F)F)cc2)[C@H](C)CC2C3C[C@H](F)C4=CC(=O)C=C[C@]4(C)[C@@]3(F)[C@@H](O)C[C@@]21C (stereo partly drawn) [IA.38, S-[2-Oxo-2-(4-trifluoromethylphenyl)ethyl]6α,9α-difluoro-11β-hydroxy-16α-methyl-3-oxo-17α-propionyloxyandrosta-1,4-diene-17β-carbothioate]
Mean % Inhibition of Granuloma ([3]; dose 10 mcg per pellet): 67.17%

Molecule: 6α,9α-Difluoro-11β-hydroxy-16α-methyl-3-oxo-17α-propionyloxyandrosta-1,4-diene-17β-carbonylsulfenic acid (4-trifluoromethylphenyl)methyl eseter. [IC.8]
Mean % Inhibition of Granuloma ([3]; dose 3 mcg per pellet): 45.15%
Thymus wt. (% Decrease) ([3]; dose 3 mcg per pellet): 3.38%

Molecule: CC1CC2C3CC(F)C4=CC(=O)C=CC4(C)C3(F)C(O)CC2(C)C1(OC(=O)c1ccco1)C(=O)SOCc1ccc(Cl)cc1 (stereo not drawn) [IC.7, 6α,9α-Difluoro-17α-[(2-furanylcarbonyl)oxy]-11β-hydroxy-16α-methyl-3-oxoandrosta-1,4-diene-17β-carbonylsulfenic acid (4-chlorophenyl)methyl ester.]
Glucocorticoid receptor binding % inhibition ([4]; % inhibition at 10 nM): 41^b %
